Results taken from BindingDB's records for doi:10.1016/S0960-894X(97)00368-5 (1997).

Biological target: Human cytomegalovirus protease (assemblin)
Test: Inhibitory concentration against human cytomegalovirus protease variant expressing a beta galactosidase reporter gene

Row | SMILES | IC50
1 | Cc1c(NC(=O)CN(C)C)ccc2nc(N[C@H](C)c3ccccc3)oc(=O)c12 [2-Dimethylamino-N-[5-methyl-4-oxo-2-(1-phenyl-ethylamino)-4H-benzo[d][1,3]oxazin-6-yl]-acetamide] | 2200 nM
2 | Cc1cccc2nc(NC(C)C)oc(=O)c12 [2-Isopropylamino-5-methyl-benzo[d][1,3]oxazin-4-one] | 4000 nM
3 | Cc1cccc2nc(N[C@H](C)c3ccc(Br)cc3)oc(=O)c12 [2-[1-(4-Bromo-phenyl)-ethylamino]-5-methyl-benzo[d][1,3]oxazin-4-one] | 460 nM
4 | Cc1c(NC(=O)c2ccccn2)ccc2nc(N[C@H](C)c3ccccc3)oc(=O)c12 [Pyridine-2-carboxylic acid [5-methyl-4-oxo-2-(1-phenyl-ethylamino)-4H-benzo[d][1,3]oxazin-6-yl]-amide] | 720 nM
5 | Cc1c(NC(=O)OC(C)(C)C)ccc2nc(N[C@H](C)c3ccccc3)oc(=O)c12 [[5-Methyl-4-oxo-2-(1-phenyl-ethylamino)-4H-benzo[d][1,3]oxazin-6-yl]-carbamic acid tert-butyl ester] | 1300 nM
